Assays:
Mus musculus [1] = test: Analgesic activity in Mus musculus Swiss albino (mouse) assessed as protection against acetic acid-induced writhing response at 20 mg/kg, po administered 30 min prior to acetic acid challenge measured at 1 hr relative to control; format: functional
Mus musculus [2] = test: Analgesic activity in Mus musculus Swiss albino (mouse) assessed as protection against acetic acid-induced writhing response at 20 mg/kg, po administered 30 min prior to acetic acid challenge measured at 2 hr relative to control; format: functional
Mus musculus [3] = test: Analgesic activity in Mus musculus Swiss albino (mouse) assessed as protection against acetic acid-induced writhing response at 20 mg/kg, po administered 30 min prior to acetic acid challenge measured at 0.5 hr relative to control; format: functional
Mus musculus [4] = test: Ulcerogenic activity in Mus musculus Swiss albino (mouse) stomach assessed as decrease in ulcer spots at 60 mg/kg, po after 17 hr by hematoxylin-eosin staining relative to vehicle-treated control; format: toxicity, organism-based; design: dose 60 mg/kg, route oral; conditions: in vivo

Compound	Activity (Mus musculus [1]) [%]	Activity (Mus musculus [2]) [%]	Activity (Mus musculus [3]) [%]	Activity (Mus musculus [4])
COc1ccccc1-c1cc(-c2cc3cc(Br)ccc3oc2=O)nc(NCN2CCOCC2)n1	36.13	37.61	41.97	
COc1cccc(-c2cc(-c3cc4cc(Br)ccc4oc3=O)nc(NCN3CCOCC3)n2)c1	53.41	47.42	60.62	
O=c1oc2ccc(Br)cc2cc1-c1cc(-c2ccc(Cl)cc2Cl)nc(NCN2CCOCC2)n1	85.36	69.6	95.34	Non-toxic
O=c1oc2ccc(Br)cc2cc1-c1cc(-c2c(Cl)cccc2Cl)nc(NCN2CCOCC2)n1	87.96	75.26	95.34	
O=c1oc2ccc(Br)cc2cc1-c1cc(-c2cccc(Cl)c2)nc(NCN2CCCCC2)n1	83.25	51.53	81.87	
O=c1oc2ccc(Br)cc2cc1-c1cc(-c2ccc(Cl)cc2)nc(NCN2CCCCC2)n1	77.47	61.86	83.94	
O=c1oc2ccc(Br)cc2cc1-c1cc(-c2ccccc2Br)nc(NCN2CCCCC2)n1	40.31	15.47	55.96	
O=c1oc2ccc(Br)cc2cc1-c1cc(-c2cccc(Br)c2)nc(NCN2CCCCC2)n1	37.7	39.16	41.97	
O=c1oc2ccc(Br)cc2cc1-c1cc(-c2ccc(Br)cc2)nc(NCN2CCCCC2)n1	41.88	32.47	49.74	
COc1ccccc1-c1cc(-c2cc3cc(Br)ccc3oc2=O)nc(NCN2CCCCC2)n1	65.44	33.5	77.72	
COc1cccc(-c2cc(-c3cc4cc(Br)ccc4oc3=O)nc(NCN3CCCCC3)n2)c1	63.87	35.05	74.09	
O=c1oc2ccc(Br)cc2cc1-c1cc(-c2ccc(Cl)cc2Cl)nc(NCN2CCCCC2)n1	69.12	38.14	83.94	
O=c1oc2ccc(Br)cc2cc1-c1cc(-c2c(Cl)cccc2Cl)nc(NCN2CCCCC2)n1	18.32	15.47	26.43	
O=c1oc2ccc(Br)cc2cc1-c1cc(-c2ccccc2Cl)nc(NCN2CCOCC2)n1	87.97	64.43	97.93	
O=c1oc2ccc(Br)cc2cc1-c1cc(-c2cccc(Cl)c2)nc(NCN2CCOCC2)n1	62.3	40.71	69.95	
O=c1oc2ccc(Br)cc2cc1-c1cc(-c2ccc(Cl)cc2)nc(NCN2CCOCC2)n1	89.54	55.68	98.45	
O=c1oc2ccc(Br)cc2cc1-c1cc(-c2ccccc2Br)nc(NCN2CCOCC2)n1	50.27	47.94	59.59	
O=c1oc2ccc(Br)cc2cc1-c1cc(-c2cccc(Br)c2)nc(NCN2CCOCC2)n1	45.55	47.42	52.33	
O=c1oc2ccc(Br)cc2cc1-c1cc(-c2ccc(Br)cc2)nc(NCN2CCOCC2)n1	51.3	46.89	61.66	
O=c1oc2ccc(Br)cc2cc1-c1cc(-c2ccccc2Cl)nc(NCN2CCCCC2)n1	84.83	52.06	89.64	
O=C([O-])Cc1ccccc1Nc1c(Cl)cccc1Cl.[Na+] [DICLOFENAC SODIUM]	94.25	84.53	95.87	

Source: ChEMBL document CHEMBL3046399, “Microwave assisted synthesis of novel pyrimidine derivatives and investigation of their analgesic and ulcerogenic activity” (Med Chem Res, 2012)
